PubChem BioAssay (NCI)
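Cultured in 96-well plates, cells were exposed to test compound for 48 hours across five concentrations. GI50: concentration for 50% inhibition of growth. Definition used: TGI = concentration required for complete inhibition of growth.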

Columns and labels:
Assay in all cases: NCI tumour cell line growth inhibition, 48 h
786-0 renal = test system: 786-0 renal
A498 renal = test system: A498 renal
A549 NSCLC = test system: A549 NSCLC
ACHN renal = test system: ACHN renal
BT-549 breast = test system: BT-549 breast
CAKI-1 renal = test system: CAKI-1 renal
CCRF-CEM leukemia = test system: CCRF-CEM leukemia
COLO 205 colon = test system: COLO 205 colon
DU-145 prostate = test system: DU-145 prostate
EKVX NSCLC = test system: EKVX NSCLC
HCC-2998 colon = test system: HCC-2998 colon
HCT-116 colon = test system: HCT-116 colon
HCT-15 colon = test system: HCT-15 colon
HL-60(TB) leukemia = test system: HL-60(TB) leukemia
HOP-62 NSCLC = test system: HOP-62 NSCLC
HOP-92 NSCLC = test system: HOP-92 NSCLC
HS 578T breast = test system: HS 578T breast
HT29 colon = test system: HT29 colon
IGROV1 ovarian = test system: IGROV1 ovarian
K-562 leukemia = test system: K-562 leukemia
KM12 colon = test system: KM12 colon
LOX IMVI melanoma = test system: LOX IMVI melanoma
M14 melanoma = test system: M14 melanoma
MALME-3M melanoma = test system: MALME-3M melanoma
MCF7 breast = test system: MCF7 breast
MDA-MB-231 breast = test system: MDA-MB-231 breast
MDA-MB-435 = test system: MDA-MB-435
MOLT-4 leukemia = test system: MOLT-4 leukemia
NCI-H226 lung = test system: NCI-H226 lung
NCI-H23 lung = test system: NCI-H23 lung
NCI-H460 lung = test system: NCI-H460 lung
NCI-H522 lung = test system: NCI-H522 lung
NCI/ADR-RES ovarian = test system: NCI/ADR-RES ovarian
OVCAR-3 ovarian = test system: OVCAR-3 ovarian
OVCAR-4 ovarian = test system: OVCAR-4 ovarian
OVCAR-5 ovarian = test system: OVCAR-5 ovarian
OVCAR-8 ovarian = test system: OVCAR-8 ovarian
PC-3 prostate = test system: PC-3 prostate
RPMI-8226 leukemia = test system: RPMI-8226 leukemia
RXF 393 renal = test system: RXF 393 renal
SF-268 CNS = test system: SF-268 CNS
SF-295 CNS = test system: SF-295 CNS
SF-539 CNS = test system: SF-539 CNS
SK-MEL-2 melanoma = test system: SK-MEL-2 melanoma
SK-MEL-28 melanoma = test system: SK-MEL-28 melanoma
SK-MEL-5 melanoma = test system: SK-MEL-5 melanoma
SK-OV-3 ovarian = test system: SK-OV-3 ovarian
SN12C renal = test system: SN12C renal
SNB-19 CNS = test system: SNB-19 CNS
SNB-75 CNS = test system: SNB-75 CNS
SR leukemia = test system: SR leukemia
SW-620 colon = test system: SW-620 colon
T-47D breast = test system: T-47D breast
TK-10 renal = test system: TK-10 renal
U251 CNS = test system: U251 CNS
UACC-257 melanoma = test system: UACC-257 melanoma
UACC-62 melanoma = test system: UACC-62 melanoma
UO-31 renal = test system: UO-31 renal

Compound: COc1cc(/C=C\c2cc(/C=C\c3ccc(O)c(OC)c3)n(C(=O)COc3ccccc3)n2)ccc1O
- GI50 (786-0 renal): 1060 nM
- TGI (786-0 renal): 3580 nM
- GI50 (A498 renal): 2680 nM
- TGI (A498 renal): 6490 nM
- GI50 (A549 NSCLC): 2420 nM
- TGI (A549 NSCLC): 11100 nM
- GI50 (ACHN renal): 490 nM
- TGI (ACHN renal): 11100 nM
- GI50 (BT-549 breast): 571 nM
- TGI (BT-549 breast): 4030 nM
- GI50 (CAKI-1 renal): 657 nM
- TGI (CAKI-1 renal): 12400 nM
- GI50 (CCRF-CEM leukemia): 281 nM
- TGI (CCRF-CEM leukemia): 1340 nM
- GI50 (COLO 205 colon): 1960 nM
- TGI (COLO 205 colon): 3950 nM
- GI50 (DU-145 prostate): 1370 nM
- TGI (DU-145 prostate): 8060 nM
- GI50 (EKVX NSCLC): 2530 nM
- TGI (EKVX NSCLC): 10300 nM
- GI50 (HCC-2998 colon): 2270 nM
- TGI (HCC-2998 colon): 10200 nM
- GI50 (HCT-116 colon): 386 nM
- TGI (HCT-116 colon): 10000 nM
- GI50 (HCT-15 colon): 416 nM
- TGI (HCT-15 colon): 7960 nM
- GI50 (HL-60(TB) leukemia): 282 nM
- TGI (HL-60(TB) leukemia): 901 nM
- GI50 (HOP-62 NSCLC): 1080 nM
- TGI (HOP-62 NSCLC): 4950 nM
- GI50 (HOP-92 NSCLC): 3130 nM
- TGI (HOP-92 NSCLC): 20400 nM
- GI50 (HS 578T breast): 1120 nM
- TGI (HS 578T breast): 6840 nM
- GI50 (HT29 colon): 2670 nM
- TGI (HT29 colon): 6350 nM
- GI50 (IGROV1 ovarian): 919 nM
- TGI (IGROV1 ovarian): 8000 nM
- GI50 (K-562 leukemia): 366 nM
- TGI (K-562 leukemia): 10800 nM
- GI50 (KM12 colon): 500 nM
- TGI (KM12 colon): 6810 nM
- GI50 (LOX IMVI melanoma): 550 nM
- TGI (LOX IMVI melanoma): 3290 nM
- GI50 (M14 melanoma): 343 nM
- TGI (M14 melanoma): 2680 nM
- GI50 (MALME-3M melanoma): 585 nM
- TGI (MALME-3M melanoma): 3710 nM
- GI50 (MCF7 breast): 343 nM
- TGI (MCF7 breast): 2830 nM
- GI50 (MDA-MB-231 breast): 2380 nM
- TGI (MDA-MB-231 breast): 15300 nM
- GI50 (MDA-MB-435): 210 nM
- TGI (MDA-MB-435): 492 nM
- GI50 (MOLT-4 leukemia): 368 nM
- TGI (MOLT-4 leukemia): 3260 nM
- GI50 (NCI-H226 lung): 3150 nM
- TGI (NCI-H226 lung): 9940 nM
- GI50 (NCI-H23 lung): 1330 nM
- TGI (NCI-H23 lung): 6640 nM
- GI50 (NCI-H460 lung): 1250 nM
- TGI (NCI-H460 lung): 10200 nM
- GI50 (NCI-H522 lung): 304 nM
- TGI (NCI-H522 lung): 970 nM
- GI50 (NCI/ADR-RES ovarian): 559 nM
- TGI (NCI/ADR-RES ovarian): 11700 nM
- GI50 (OVCAR-3 ovarian): 552 nM
- TGI (OVCAR-3 ovarian): 2770 nM
- GI50 (OVCAR-4 ovarian): 845 nM
- TGI (OVCAR-4 ovarian): 12300 nM
- GI50 (OVCAR-5 ovarian): 2750 nM
- TGI (OVCAR-5 ovarian): 6810 nM
- GI50 (OVCAR-8 ovarian): 2520 nM
- TGI (OVCAR-8 ovarian): 8570 nM
- GI50 (PC-3 prostate): 1600 nM
- TGI (PC-3 prostate): > 100000 nM
- GI50 (RPMI-8226 leukemia): 377 nM
- TGI (RPMI-8226 leukemia): 2360 nM
- GI50 (RXF 393 renal): 1000 nM
- TGI (RXF 393 renal): 2520 nM
- GI50 (SF-268 CNS): 651 nM
- TGI (SF-268 CNS): 5650 nM
- GI50 (SF-295 CNS): 2780 nM
- TGI (SF-295 CNS): 7700 nM
- GI50 (SF-539 CNS): 354 nM
- TGI (SF-539 CNS): 2470 nM
- GI50 (SK-MEL-2 melanoma): 661 nM
- TGI (SK-MEL-2 melanoma): 3560 nM
- GI50 (SK-MEL-28 melanoma): 1120 nM
- TGI (SK-MEL-28 melanoma): 10400 nM
- GI50 (SK-MEL-5 melanoma): 834 nM
- TGI (SK-MEL-5 melanoma): 3520 nM
- GI50 (SK-OV-3 ovarian): 1530 nM
- TGI (SK-OV-3 ovarian): 3450 nM
- GI50 (SN12C renal): 799 nM
- TGI (SN12C renal): 7660 nM
- GI50 (SNB-19 CNS): 1360 nM
- TGI (SNB-19 CNS): 9590 nM
- GI50 (SNB-75 CNS): 822 nM
- TGI (SNB-75 CNS): 5300 nM
- GI50 (SR leukemia): 318 nM
- TGI (SR leukemia): 2460 nM
- GI50 (SW-620 colon): 608 nM
- TGI (SW-620 colon): 9020 nM
- GI50 (T-47D breast): 1620 nM
- TGI (T-47D breast): 6950 nM
- GI50 (TK-10 renal): 2910 nM
- TGI (TK-10 renal): 10900 nM
- GI50 (U251 CNS): 564 nM
- TGI (U251 CNS): 5960 nM
- GI50 (UACC-257 melanoma): 2210 nM
- TGI (UACC-257 melanoma): 7340 nM
- GI50 (UACC-62 melanoma): 326 nM
- TGI (UACC-62 melanoma): 1270 nM
- GI50 (UO-31 renal): 302 nM
- TGI (UO-31 renal): 4120 nM
